# Where two headings read alike, the source gives them in different places. Marks after values point to notes of the source that are not given here.
# How the values were obtained:
# [1] = test system: IIIB strain of HIV-1 (wild-type); assay: microbe, parasite or virus in culture; format: cell-based
# [2] = Table 2, cited from earlier work
# [3] = Aqueous solubility, shake-flask procedure; format: physicochemical
# Description: Poor solubility, which has been a problem for many NNRTIs, often leads too low bioavailability, difficulties in formulation, and high dosages.^6,32,33 The issue reflects the hydrophobic nature of the NNRTI binding site. In the design of the catechol diethers, attention was paid to having both good potency and aqueous solubility. In our laboratory, solubilities are measured using a shake-flask procedure.^6,34 The compounds are dissolved in Britton-Robinson buffer and stirred in vials for 48 hours at 25° C. The pH of the buffer solutions is 6.5 as measured by a Corning General Purpose pH Combination probe (4136L21).
compound,measurement,setting,value
"O=c1ccn(CCOc2ccccc2Oc2cccc3ccccc23)c(=O)[nH]1 [14a, 1-(2-(2-(naphthalen-1-yloxy)phenoxy)ethyl)pyrimidine-2,4(1H,3H)-dione]","fold less active, WT",[1]; 14a compared with 14e,100 fold
same,CC50,human MT-2 T-cells; human,80 µM
Cc1cc(C#N)cc(C)c1Oc1nc(Nc2ccc(C#N)cc2)nc(N)c1Br [etravirine],"S, aqueous solubility",[2]; Ref. 36,<<1^b μg/mL
"O=C1Nc2ccc(Cl)cc2[C@@](C#CC2CC2)(C(F)(F)F)O1 [efavirenz, reference compound]",EC50,"[1]; Human immunodeficiency virus 1, IIIB, MT2, read-out: WT EC50",2 nM
"N#Cc1ccc2c(Oc3ccccc3OCCn3ccc(=O)[nH]c3=O)cccc2c1 [14e, 5-(2-(2-(2,4-dioxo-3,4-dihydropyrimidin-1(2H)-yl)ethoxy)phenoxy)-2-naphthonitrile]",CC50,human MT-2 T-cells; human,> 100 µM
same,CC50,in vitro; human,> 100 µM
same,fold less soluble,[3]; 14e compared with indolizine 10b,10 fold
same,fold improvement in solubility,[3]; 14e over etravirine and rilpivirine,ca. 40 fold
same,solubility at 48 h,"[3]; Britton-Robinson buffer, 25 °C, pH 6.5, aqueous buffer, thermodynamic from solid, Table 2, pH 6.5, Britton-Robinson buffer, 48 hours at 25° C., read-out: S, aqueous solubility",4.3 µg/mL
"N#Cc1cc2cccc(Oc3ccc(F)cc3OCCn3ccc(=O)[nH]c3=O)n2c1 [11a, 5-(2-(2-(2,4-dioxo-3,4-dihydropyrimidin-1(2H)-yl)ethoxy)-4-fluorophenoxy)indolizine-2-carbonitrile]","fold less active, WT",[1]; 11a compared with its isomer 10f,6 fold
same,CC50,in vitro; human,> 100 µM
"Cc1ccnc2c1NC(=O)c1cccnc1N2C1CC1 [nevirapine, reference compound]","S, aqueous solubility",[2]; Ref. 35,167^a μg/mL
same,CC50,"human MT-2 T-cells; Table 3, 50% inhibition of MT-2 cell growth",> 100 µM
same,CC50,"human MT-2 T-cells; Table 4, 50% inhibition of MT-2 cell growth",> 100 µM
same,CC50,in vitro,> 100 µM
